Tests used:
PDE10A = PDE10A (Homo sapiens, UniProt Q9Y233); assay: luminescence PDE inhibition assay (PDElight HTS cAMP phosphodiesterase assay kit); type: biochemical; conditions: for inhibition at 3 µM / inhibition at 10 µM: 1 h; for IC50: SEM of three independent experiments performed in duplicate
Method: Test and reference compounds were dissolved in dimethyl sulfoxide (DMSO) at a concentration of 1 mM and further diluted in assay buffer in order to obtain the final concentration of compounds: 10 µM and 3 µM, respectively. All reactions were carried out at 37 °C in white, half-area 96-well plates (Perkin Elmer, Waltham, MA, USA). The inhibition of PDE 10A enzyme was measured using the PDElight HTS cAMP phosphodiesterase assay kit (Lonza) according to the manufacturer’s recommendations. 2.5 U of PDE 10A enzyme was preincubated either with DMSO (vehicle control) or compound for 20 min before incubation with the substrate, cAMP (final concentration 1.25 µM), for 1 h. Then, PDELight AMP Detection Reagent was added. After 10 min incubation, the luminescence was measured in a multifunction plate reader (POLARstar Omega, BMG Labtech, Ortenberg, Germany).

5-HT1A receptor = molecular target: T1, 5-HT1A receptor (Homo sapiens, UniProt P08908); assay: radioligand binding assay, [3H]8-OH-DPAT; conditions: read-out: 5-HT1A 1 µM ± SEM (% of control specific binding)
T1 sequence (P08908 1-422): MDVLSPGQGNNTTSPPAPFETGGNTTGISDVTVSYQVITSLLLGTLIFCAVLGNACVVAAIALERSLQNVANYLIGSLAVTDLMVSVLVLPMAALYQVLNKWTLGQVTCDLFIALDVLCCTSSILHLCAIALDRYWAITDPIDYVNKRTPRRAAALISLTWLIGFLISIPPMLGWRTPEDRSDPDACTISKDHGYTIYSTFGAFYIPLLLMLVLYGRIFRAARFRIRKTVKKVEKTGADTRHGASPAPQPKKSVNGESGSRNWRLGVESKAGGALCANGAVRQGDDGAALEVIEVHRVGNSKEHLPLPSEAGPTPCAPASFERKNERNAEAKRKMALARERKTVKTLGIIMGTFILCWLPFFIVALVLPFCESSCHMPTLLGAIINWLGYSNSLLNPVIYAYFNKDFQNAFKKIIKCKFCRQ
Method: (§1) Briefly: binding experiments were conducted in 96-well microplates in a total final volume of 250 μL of appropriate buffers. Reaction mix included 50 μL solution of test compound, 50 μL of radioligand ([^3H]8-OH-DPAT for 5-HT1A, and [^3H]-LSD for 5-HT7, respectively) and 150 μL of diluted membranes (see description and Table S2 in Supporting Materials). Specific assay conditions for each receptor are described elsewhere. The radioactivity was measured in a MicroBeta2 scintillation counter (PerkinElmer, USA). Each compound was tested in the assay as duplicate samples at 1 µM final concentrations. Results were expressed as percent inhibition of specific binding.

5-HT7 receptor = 5-HT7 receptor (Homo sapiens, UniProt P34969); assay: radioligand binding assay, [3H]-LSD; conditions: read-out: 5-HT7 1 µM ± SEM (% of control specific binding)
Method: as §1

CD-1 mice [1] = assay: d-amphetamine-induced hyperlocomotor activity; type: in vivo
Method: The experiments were performed on male CD-1 mice (in the accredited animal facility at the Jagiellonian University Medical College, Krakow, Poland), and mice were kept in groups of ten in Makrolon type 3 cages (dimensions 26.5 × 15 × 42 cm). The animals were kept in an environmentally controlled room (ambient temperature 22 ± 2 °C; relative humidity 50–60%; 12:12 light:dark cycle, lights on at 8:00). They were allowed to acclimatize with the environment for one week before commencement of the experiments. Standard laboratory food (Ssniff M-Z) and filtered water were freely available. All the experimental procedures were approved by the I Local Ethics Commission at the Jagiellonian University in Krakow (Approval Nos.: 125/2017, 123/2015, and 158/2017). All the experiments were conducted in the light phase between 09.00 and 14.00 h. Each experimental group consisted of 7–10 animals per treatment dose. The animals were used only once. Locomotor activity was recorded with an Opto M3 multi-channel activity monitor (MultiDevice Software v.1.3, Columbus Instruments, Columbus, OH, USA). The CD-1 mice were individually placed in plastic cages (22 × 12 × 13 cm) immediately after drug administration, and then ambulation was counted during 1 h with data recording every 10 min. The cages were cleaned up with 70% ethanol after each mouse. […] All compounds were injected at a volume of 10 mL/kg. Control animals received a vehicle injection according to the same schedule.

CD-1 mice [2] = assay: spontaneous locomotor activity; type: in vivo; conditions: for spontaneous locomotor activity: mean ± S.E.M.
Method: The experiments were performed on male CD-1 mice (in the accredited animal facility at the Jagiellonian University Medical College, Krakow, Poland), and mice were kept in groups of ten in Makrolon type 3 cages (dimensions 26.5 × 15 × 42 cm). The animals were kept in an environmentally controlled room (ambient temperature 22 ± 2 °C; relative humidity 50–60%; 12:12 light:dark cycle, lights on at 8:00). They were allowed to acclimatize with the environment for one week before commencement of the experiments. Standard laboratory food (Ssniff M-Z) and filtered water were freely available. All the experimental procedures were approved by the I Local Ethics Commission at the Jagiellonian University in Krakow (Approval Nos.: 125/2017, 123/2015, and 158/2017).
All the experiments were conducted in the light phase between 09.00 and 14.00 h. Each experimental group consisted of 7–10 animals per treatment dose. The animals were used only once.
Locomotor activity was recorded with an Opto M3 multi-channel activity monitor (MultiDevice Software v.1.3, Columbus Instruments, Columbus, OH, USA). The CD-1 mice were individually placed in plastic cages (22 × 12 × 13 cm) immediately after drug administration, and then ambulation was counted during 1 h with data recording every 10 min. The cages were cleaned up with 70% ethanol after each mouse.
Locomotor activity was recorded according to the method described above.
All compounds were injected at a volume of 10 mL/kg. Control animals received a vehicle injection according to the same schedule.

[3] = tested on: HePG2 human liver cancer cell-line; assay: MTT cytotoxicity assay; type: cell-based; conditions: HepG2 cells, 24 h, 0.1–100 µM
Method: (§2) The HePG2 human liver cancer cell-line, (ATCC® 59195™) and the SH-SY5Y human neuroblastoma cell-line (ATCC® CRL-2266™) were used in the study. The cells were cultured in standard conditions (37 °C, 5% CO2), in EMEM (HepG2 and SH-SY5Y), supplemented with 10% fetal bovine serum (FBS) (Gibco, Thermo Fisher Scientific, Waltham, MA. USA) and antibiotics (Lonza, Köln, Germany).
(§3) The MTT assay was used to determine the cytotoxic effects of the analyzed compounds. Cells were seeded at a density of 2 × 10^4 in 96-well plates. Following overnight culture, cells were then treated with increasing concentrations of compound 18 (0.1–100 µM) and incubated for 24 h. Following cell exposure for 24 h, 10 µL MTT reagent (Sigma Aldrich) was added to each well and, after 3 h of incubation (37 °C, 5% CO2), the medium was aspirated and the formazan produced in the cells appeared as dark crystals in the bottom of the wells. Next, Crystal DMSO was added to each well. Then, the optical density (OD) of each well was determined at 570 nm on a plate-reader (Spectra iD3, Molecular Devices, San Jose, CA, USA). The number of metabolically active and living cells is directly proportional to the absorbance of the samples. The results are presented in Figure 5 as the percentage of control ± SEM. Doxorubicin was used as reference standard (cytotoxic agent).

[4] = tested on: SH-SY5Y human neuroblastoma cell-line; assay: MTT cytotoxicity assay; type: cell-based; conditions: SHSY-5Y cells, 24 h, 0.1–100 µM
Method: as §2, §3

[5] = percentage of inhibition respective to vehicle control (DMSO), 3 µM
[6] = percentage of inhibition respective to vehicle control (DMSO), 10 µM

PDE10A, sequence (Q9Y233 whole entry, species assumed): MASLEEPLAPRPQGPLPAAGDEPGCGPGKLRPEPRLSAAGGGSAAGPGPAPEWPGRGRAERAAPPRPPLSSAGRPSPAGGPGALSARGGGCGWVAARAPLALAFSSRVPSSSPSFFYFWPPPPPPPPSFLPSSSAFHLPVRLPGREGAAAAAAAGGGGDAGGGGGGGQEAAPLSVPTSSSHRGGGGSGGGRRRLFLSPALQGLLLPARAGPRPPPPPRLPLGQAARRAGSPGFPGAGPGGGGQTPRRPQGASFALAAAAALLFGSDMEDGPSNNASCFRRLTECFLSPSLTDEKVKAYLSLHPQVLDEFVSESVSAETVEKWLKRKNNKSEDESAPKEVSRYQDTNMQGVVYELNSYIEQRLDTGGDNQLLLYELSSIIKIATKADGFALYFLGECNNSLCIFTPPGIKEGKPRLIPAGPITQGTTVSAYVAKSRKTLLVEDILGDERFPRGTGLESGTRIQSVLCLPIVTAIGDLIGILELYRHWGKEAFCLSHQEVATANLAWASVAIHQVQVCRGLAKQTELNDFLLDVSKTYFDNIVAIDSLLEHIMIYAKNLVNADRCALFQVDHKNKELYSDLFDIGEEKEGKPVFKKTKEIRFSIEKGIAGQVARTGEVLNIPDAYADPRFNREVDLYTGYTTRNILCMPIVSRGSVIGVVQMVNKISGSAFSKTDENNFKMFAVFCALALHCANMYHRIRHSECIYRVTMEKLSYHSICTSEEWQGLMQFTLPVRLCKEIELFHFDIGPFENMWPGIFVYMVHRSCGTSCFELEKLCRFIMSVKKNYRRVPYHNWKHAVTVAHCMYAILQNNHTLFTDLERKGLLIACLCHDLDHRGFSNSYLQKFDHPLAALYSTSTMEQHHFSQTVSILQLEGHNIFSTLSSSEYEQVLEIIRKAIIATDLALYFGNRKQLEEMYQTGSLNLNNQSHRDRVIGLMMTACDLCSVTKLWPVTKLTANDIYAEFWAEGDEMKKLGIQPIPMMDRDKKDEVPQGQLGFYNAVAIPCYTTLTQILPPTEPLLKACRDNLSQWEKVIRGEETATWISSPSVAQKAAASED
5-HT7 receptor, sequence (P34969 whole entry): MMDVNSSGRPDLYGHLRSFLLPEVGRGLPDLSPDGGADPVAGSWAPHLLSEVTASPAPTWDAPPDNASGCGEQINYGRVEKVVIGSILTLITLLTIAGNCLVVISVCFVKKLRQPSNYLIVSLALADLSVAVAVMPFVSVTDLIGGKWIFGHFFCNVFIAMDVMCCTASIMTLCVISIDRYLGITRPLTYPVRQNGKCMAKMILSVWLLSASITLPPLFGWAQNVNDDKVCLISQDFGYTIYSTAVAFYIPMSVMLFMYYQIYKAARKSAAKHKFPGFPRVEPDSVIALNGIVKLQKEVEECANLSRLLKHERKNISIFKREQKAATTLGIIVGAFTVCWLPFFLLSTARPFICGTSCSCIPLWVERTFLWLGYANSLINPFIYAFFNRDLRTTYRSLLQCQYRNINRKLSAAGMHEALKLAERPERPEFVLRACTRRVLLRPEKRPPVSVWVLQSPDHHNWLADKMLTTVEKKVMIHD

inhibition at 3 µM (PDE10A; [5]) | inhibition at 10 µM (PDE10A; [6]) | inhibition at 1 µM (5-HT1A receptor) | inhibition at 1 µM (5-HT7 receptor) | melting point | IC50 (PDE10A) | SMILES | other results
40% | 70% | 44 ± 5% | 0% | 197 to 198 °C | 6.71 ± 0.195 µM | COc1cccc2c1C(=O)N(CCc1nc3ccccc3[nH]1)C2=O [Compound 15, 2-[2-(1H-Benzimidazol-2-yl)ethyl]-4-methoxy-1H-isoindole-1,3(2H)-dione] | –
11% | 13% | 32 ± 3% | 14% | 94 to 95 °C | – | COc1cccc2c1C(=O)N(CCCc1ccccc1)C2=O [Compound 16, 4-Methoxy-2-(3-phenylpropyl)-1H-isoindole-1,3(2H)-dione] | –
73% | 86% | 16 ± 5% | 10 ± 3% | 217 to 218 °C | 1.001 ± 0.009 µM | COc1cccc2c1C(=O)N(CCCc1nc3ccccc3[nH]1)C2=O [Compound 17, 2-[3-(1H-Benzimidazol-2-yl)propyl]-4-methoxy-1H-isoindole-1,3(2H)-dione] | –
52% | 75% | 28 ± 2% | 6% | 108 to 109 °C | 4.31 ± 0.365 µM | COc1cccc2c1C(=O)N(CCCCCc1nc3ccccc3[nH]1)C2=O [Compound 19, 2-[5-(1H-Benzimidazol-2-yl)pentyl]-4-methoxy-1H-isoindole-1,3(2H)-dione] | –
0% | 1% | 26 ± 2% | 36% | 202 to 203 °C | – | O=C1c2ccccc2C(=O)N1CCc1nc2ccccc2[nH]1 [Compound 20, 2-[2-(1H-Benzimidazol-2-yl)ethyl]-1H-isoindole-1,3(2H)-dione] | –
16% | 45% | 27 ± 2% | 14 ± 2% | 190 to 191 °C | – | O=C1c2ccccc2C(=O)N1CCCc1nc2ccccc2[nH]1 [Compound 21, 2-[3-(1H-Benzimidazol-2-yl)propyl]-1H-isoindole-1,3(2H)-dione] | –
47% | 73% | 20 ± 3% | 15 ± 2% | 179 to 180 °C | 5.65 ± 0.495 µM | O=C1c2ccccc2C(=O)N1CCCCc1nc2ccccc2[nH]1 [Compound 22, 2-[4-(1H-Benzimidazol-2-yl)butyl]-1H-isoindole-1,3(2H)-dione] | –
26% | 58% | 48 ± 3% | 34 ± 2% | 168 to 169 °C | – | O=C1c2ccccc2C(=O)N1CCCCCc1nc2ccccc2[nH]1 [Compound 23, 2-[5-(1H-Benzimidazol-2-yl)pentyl]-1H-isoindole-1,3(2H)-dione] | –
– | – | – | – | – | – | COc1ccc(Cc2nccc3cc(OC)c(OC)cc23)cc1OC [Papaverine, papaverine] | PDE10A [%] 3 µM (PDE10A; [5]): 54%; PDE10A [%] 10 µM (PDE10A; [6]): 75%; effect on AMPH-induced hyperactivity (CD-1 mice [1]; 40 and 60 mg/kg ip): dose-dependently antagonized this response; effect on AMPH-induced hyperactivity (CD-1 mice [1]; lower doses (data not shown)): did not change the stimulating effect of AMPH; spontaneous locomotor activity (CD-1 mice [2]; 40 mg/kg ip, 10 min of the test): 43.1; spontaneous locomotor activity (CD-1 mice [2]; 40 mg/kg ip, 20 min of the test): 170.2; spontaneous locomotor activity (CD-1 mice [2]; 40 mg/kg ip, 30 min of the test): 571.9; spontaneous locomotor activity (CD-1 mice [2]; 40 mg/kg ip, 60 min of the test): 2260.8; spontaneous locomotor activity (CD-1 mice [2]; 60 mg/kg ip, 10 min of the test): 7.1; spontaneous locomotor activity (CD-1 mice [2]; 60 mg/kg ip, 20 min of the test): 24.6; spontaneous locomotor activity (CD-1 mice [2]; 60 mg/kg ip, 30 min of the test): 47.5; spontaneous locomotor activity (CD-1 mice [2]; 60 mg/kg ip, 60 min of the test): 200.4; effect on spontaneous locomotor activity (CD-1 mice [2]; 40 and 60 mg/kg): locomotor-suppressing effects were observed
– | – | – | – | – | – | COc1cccc2c1C(=O)c1c(O)c3c(c(O)c1C2=O)C[C@@](O)(C(=O)CO)C[C@@H]3O[C@H]1C[C@H](N)[C@H](O)[C@H](C)O1 [doxorubicin, reference compound] | cell viability (MTT) [3]: significantly decreased cell viability already at much lower concentrations; cell viability (MTT) [4]: significantly decreased cell viability already at much lower concentrations

SMILES | inhibition at 3 µM (PDE10A; [5]) | inhibition at 10 µM (PDE10A; [6]) | inhibition at 1 µM (5-HT1A receptor) | inhibition at 1 µM (5-HT7 receptor) | melting point | IC50 (PDE10A) | other results
COc1cccc2c1C(=O)N(CCc1c[nH]cn1)C2=O [Compound 14, 2-[2-(1H-Imidazol-4-yl)ethyl]-4-methoxy-1H-isoindole-1,3(2H)-dione] | 0% | 0% | 21 ± 1% | 0% | 227 to 228 °C | – | –

Source: paper PMC7504677, “Impact of N-Alkylamino Substituents on Serotonin Receptor (5-HTR) Affinity and Phosphodiesterase 10A (PDE10A) Inhibition of Isoindole-1,3-dione Derivatives” (Molecules, 2020)
